{"source": "patent US20170368082A1", "about": "“FORMULATIONS OF BRINCIDOFOVIR” (priority 2016, published 2017)", "key": {"[1]": {"experiment": "28-day study toxicokinetics of brincidofovir and CDV in plasma", "format": "in vivo, Sprague-Dawley CD rats", "conditions": "plasma brincidofovir; for AUC(0-t) / Cmax: iv", "experimental": "Blood samples were obtained for the determination of plasma concentrations of brincidofovir and the brincidofovir metabolite, cidofovir.\nApproximately 0.40 mL of whole blood was obtained via the tail vein from each animal at each time point. Animals were not fasted prior to blood collection. Blood was collected into tubes containing K2EDTA anticoagulant and placed on wet ice in an upright position. Plasma was separated by centrifugation (for 10 minutes at approximately 2000 g, at approximately 2-8° C.). Approximately 0.150 mL of plasma was transferred into a single cryotube appropriately labeled as to study number, animal number, time point, date of sampling and sample type. Remaining plasma was transferred into a second cryotube and retained as a backup sample. Plasma was obtained and frozen at approximately −80±10° C. within approximately 2 hours after collection of each blood sample until analysis. Animals were euthanized (CO2 inhalation) after the final blood collection.\nBioanalytical samples were analyzed using a validated liquid chromatographic-triple quadruple mass spectrometric (LC-MS/MS) assay at Pyxant Labs.\nUpon receipt of the plasma concentration data, noncompartmental toxicokinetic analysis was performed by Nuventra, Inc. Durham, N.C."}, "[2]": {"experiment": "Brincidofovir equilibrium solubility in formulation vehicles", "format": "physicochemical", "experimental": "The recovery of brincidofovir in the sample supernatant was determined at different time points to establish when the solubility equilibrium was reached. Two samples of vehicle #57, were saturated with brincidofovir. […] Consequently, the pH had to be brought up close to the target pH before more brincidofovir was added."}, "[3]": {"conditions": "both sexes, Sprague-Dawley CD, rat, in vivo, 4 mg/kg, Day 1, 4 mg/kg, combined male and female, Mean"}, "[4]": {"conditions": "both sexes, Sprague-Dawley CD, rat, in vivo, 4 mg/kg, Day 1, 4 mg/kg, combined male and female, Median"}, "[5]": {"conditions": "both sexes, Sprague-Dawley CD, rat, in vivo, 15 mg/kg, Day 1, 15 mg/kg, combined male and female, Mean"}, "[6]": {"conditions": "both sexes, Sprague-Dawley CD, rat, in vivo, 15 mg/kg, Day 1, 15 mg/kg, combined male and female, Median"}, "[7]": {"conditions": "Day 29, 1 mg/kg, combined male and female rats, mean"}, "[8]": {"conditions": "Day 29, 4 mg/kg, combined male and female rats, mean"}, "[9]": {"conditions": "Day 29, 15 mg/kg, combined male and female rats, mean"}, "[10]": {"conditions": "Day 1, 1 mg/kg, combined male and female, Median"}, "[11]": {"conditions": "Day 1, 4 mg/kg, combined male and female, Mean"}, "[12]": {"conditions": "Day 1, 4 mg/kg, combined male and female, Median"}, "[13]": {"conditions": "Day 1, 15 mg/kg, combined male and female, Mean"}, "[14]": {"conditions": "Day 1, 15 mg/kg, combined male and female, Median"}}, "note": "Like-named read-outs stand apart in the source and are kept apart here."}
{"smiles": "CCCCCCCCCCCCCCCCOCCCOP(=O)(O)CO[C@H](CO)Cn1ccc(N)nc1=O", "note": "[Brincidofovir]", "values": [{"measurement": "concentration at 2 h", "setting": "[1]; both sexes, Sprague-Dawley CD, rat, in vivo, 1 mg/kg, Day 1, 1 mg/kg, combined male and female, Mean, read-out: Clast", "value": 209, "unit": "ng/mL"}, {"measurement": "concentration at 8 hr", "setting": "[1]; both sexes, Sprague-Dawley CD, rat, in vivo, 4 mg/kg, Day 29, 4 mg/kg, combined male and female rats, mean, read-out: Clast", "value": 2.06, "unit": "ng/mL"}, {"measurement": "concentration at 8 h", "setting": "[1]; both sexes, Sprague-Dawley CD, rat, in vivo, 4 mg/kg, Day 1, 4 mg/kg, combined male and female, Mean, read-out: Clast", "value": 2.2, "unit": "ng/mL"}, {"measurement": "concentration at 8 h", "setting": "[1]; both sexes, Sprague-Dawley CD, rat, in vivo, 4 mg/kg, Day 1, 4 mg/kg, combined male and female, Median, read-out: Clast", "value": 2.31, "unit": "ng/mL"}, {"measurement": "concentration at 8 hr", "setting": "[1]; both sexes, Sprague-Dawley CD, rat, in vivo, 15 mg/kg, Day 29, 15 mg/kg, combined male and female rats, mean, read-out: Clast", "value": 10.9, "unit": "ng/mL"}, {"measurement": "concentration at 8 h", "setting": "[1]; both sexes, Sprague-Dawley CD, rat, in vivo, 15 mg/kg, Day 1, 15 mg/kg, combined male and female, Mean, read-out: Clast", "value": 9.68, "unit": "ng/mL"}, {"measurement": "concentration at 8 h", "setting": "[1]; both sexes, Sprague-Dawley CD, rat, in vivo, 15 mg/kg, Day 1, 15 mg/kg, combined male and female, Median, read-out: Clast", "value": 10.3, "unit": "ng/mL"}, {"measurement": "AUC(0-t)", "setting": "[1]; both sexes, Sprague-Dawley CD, rat, in vivo, 1 mg/kg, Day 29, 1 mg/kg, combined male and female rats, mean, calculated using only 2 quantifiable data points", "value": 410, "unit": "ng·h/mL"}, {"measurement": "Cmax", "setting": "[1]; both sexes, Sprague-Dawley CD, rat, in vivo, 1 mg/kg, Day 1, 1 mg/kg, combined male and female, Mean", "value": 219, "unit": "ng/mL"}, {"measurement": "AUC(0-t)", "setting": "[1]; both sexes, Sprague-Dawley CD, rat, in vivo, 1 mg/kg, Day 1, 1 mg/kg, combined male and female, Mean, only 2 quantifiable data points", "value": 319, "unit": "ng·h/mL"}, {"measurement": "Cmax", "setting": "[1]; both sexes, Sprague-Dawley CD, rat, in vivo, 1 mg/kg, Day 1, 1 mg/kg, combined male and female, Median", "value": 210, "unit": "ng/mL"}, {"measurement": "AUC(0-t)", "setting": "[1]; both sexes, Sprague-Dawley CD, rat, in vivo, 1 mg/kg, Day 1, 1 mg/kg, combined male and female, Median, only 2 quantifiable data points", "value": 305, "unit": "ng·h/mL"}, {"measurement": "AUC(0-t)", "setting": "[1]; both sexes, Sprague-Dawley CD, rat, in vivo, 4 mg/kg, Day 29, 4 mg/kg, combined male and female rats, mean", "value": 2760, "unit": "ng·h/mL"}, {"measurement": "AUC(0-t)", "setting": "[1]; [3]", "value": 2220, "unit": "ng·h/mL"}, {"measurement": "Cmax", "setting": "[1]; [3]", "value": 1010, "unit": "ng/mL"}, {"measurement": "AUC(0-t)", "setting": "[1]; [4]", "value": 2320, "unit": "ng·h/mL"}, {"measurement": "Cmax", "setting": "[1]; [4]", "value": 1000, "unit": "ng/mL"}, {"measurement": "AUC(0-t)", "setting": "[1]; both sexes, Sprague-Dawley CD, rat, in vivo, 15 mg/kg, Day 29, 15 mg/kg, combined male and female rats, mean", "value": 9890, "unit": "ng·h/mL"}, {"measurement": "AUC(0-t)", "setting": "[1]; [5]", "value": 8820, "unit": "ng·h/mL"}, {"measurement": "Cmax", "setting": "[1]; [5]", "value": 3800, "unit": "ng/mL"}, {"measurement": "AUC(0-t)", "setting": "[1]; [6]", "value": 8780, "unit": "ng·h/mL"}, {"measurement": "Cmax", "setting": "[1]; [6]", "value": 3760, "unit": "ng/mL"}, {"measurement": "AUClast/Dose", "setting": "[1]; [7]", "value": "410 (hr*ng/mL)/(mg/kg)"}, {"measurement": "Cmax/Dose", "setting": "[1]; [7]", "value": 298, "unit": "kg·ng/mL/mg"}, {"measurement": "Tlast", "setting": "[1]; Day 29, 1 mg/kg, combined male and female rats, median", "value": 2.00, "unit": "h"}, {"measurement": "AUClast/Dose", "setting": "[1]; [8]", "value": "690 (hr*ng/mL)/(mg/kg)"}, {"measurement": "Cmax/Dose", "setting": "[1]; [8]", "value": 301, "unit": "kg·ng/mL/mg"}, {"measurement": "Tlast", "setting": "[1]; Day 29, 4 mg/kg, combined male and female rats, median", "value": 8.00, "unit": "h"}, {"measurement": "AUClast/Dose", "setting": "[1]; [9]", "value": "660 (hr*ng/mL)/(mg/kg)"}, {"measurement": "Cmax/Dose", "setting": "[1]; [9]", "value": 300, "unit": "kg·ng/mL/mg"}, {"measurement": "Tlast", "setting": "[1]; Day 29, 15 mg/kg, combined male and female rats, median", "value": 8.00, "unit": "h"}, {"measurement": "Cmax/Dose", "setting": "[1]; Day 1, 1 mg/kg, combined male and female, Mean", "value": 219, "unit": "kg·ng/mL/mg"}, {"measurement": "AUClast/Dose", "setting": "[1]; Day 1, 1 mg/kg, combined male and female, Mean, only 2 quantifiable data points", "value": "319 (hr*ng/mL)/(mg/kg)"}, {"measurement": "Clast", "setting": "[1]; [10]", "value": 206, "unit": "ng/mL"}, {"measurement": "Cmax/Dose", "setting": "[1]; [10]", "value": 210, "unit": "kg·ng/mL/mg"}, {"measurement": "Tlast", "setting": "[1]; [10]", "value": 2.00, "unit": "h"}, {"measurement": "AUClast/Dose", "setting": "[1]; Day 1, 1 mg/kg, combined male and female, Median, only 2 quantifiable data points", "value": "305 (hr*ng/mL)/(mg/kg)"}, {"measurement": "AUClast/Dose", "setting": "[1]; [11]", "value": "554 (hr*ng/mL)/(mg/kg)"}, {"measurement": "Cmax/Dose", "setting": "[1]; [11]", "value": 252, "unit": "kg·ng/mL/mg"}, {"measurement": "AUClast/Dose", "setting": "[1]; [12]", "value": "579 (hr*ng/mL)/(mg/kg)"}, {"measurement": "Cmax/Dose", "setting": "[1]; [12]", "value": 250, "unit": "kg·ng/mL/mg"}, {"measurement": "Tlast", "setting": "[1]; [12]", "value": 8.00, "unit": "h"}, {"measurement": "AUClast/Dose", "setting": "[1]; [13]", "value": "588 (hr*ng/mL)/(mg/kg)"}, {"measurement": "Cmax/Dose", "setting": "[1]; [13]", "value": 254, "unit": "kg·ng/mL/mg"}, {"measurement": "AUClast/Dose", "setting": "[1]; [14]", "value": "585 (hr*ng/mL)/(mg/kg)"}, {"measurement": "Cmax/Dose", "setting": "[1]; [14]", "value": 251, "unit": "kg·ng/mL/mg"}, {"measurement": "Tlast", "setting": "[1]; [14]", "value": 8.00, "unit": "h"}, {"measurement": "solubility thermodynamic", "setting": "[2]; pH 6.9, thermodynamic from solid", "value": "~25", "unit": "mg/mL"}, {"measurement": "solubility thermodynamic", "setting": "[2]; pH 8, thermodynamic from solid", "value": "> 270", "unit": "mg/mL"}]}
